The text below walks through data of US20200138764A1, “METHODS AND DEVICES FOR ACTIVATING ADIPOSE TISSUE” (The Procter & Gamble Company, priority 2018, published 2020).

Assay [1] relates to fat tissue. Briefly: qPCR biomarker analysis of fat tissue, in vivo. The arrangement: species or system Mice (C57BJ/6). Conditions: mouse fat tissue, SC injection twice a week over 3 weeks. The protocol: (§1) Mice (8-10 weeks old males C57BJ/6 strain) were obtained from a commercial vendor Charles River Laboratories. The animal study protocols were approved by the Institutional Animal Care and Use Committee, at the Procter & Gamble Company. Mice were acclimated to the facility for 14 days prior to initiating the study. From arrival, mice were housed in solid-bottom shoebox styled cages within room temperature of 22±2° C. with ad libitum access to water and regular rodent chow diet on a 12 h light/dark cycle. Mice were single housed and offered bedding and various enrichment options. The bedding and nesting material allowed the mice to thermoregulate to their desired level of comfort. Body weights were recorded at the beginning of the study, on each dosing day prior to dosing, and final weights were recorded at the end of the study. Overall food consumption, fecal output, and body appearance were monitored during cage side clinical observations but were not scientifically measured or tracked. During the dosing period, the animals were observed several times per day (for example, before and during injection, immediately to 30-min post injection, a few hours after injection, and end of work day).
Three groups of animals were treated with mirabegron (i.e. positive control) (n=4), placebo (n=2) and Formula III (n=6) on the left side while the right side received placebo in all three groups. The injection was performed using a 25-27-gauge ½-⅝″ length needle via a subcutaneous (SC) injection near or into the inguinal fat pad region of the lower abdomen. Dosing was done twice a week injections over 3 weeks. Necropsy was done at week 4. Test materials were administered at room temperature and in a neutral pH range. Three days after last dosing animals were euthanized with CO2 inhalation, inguinal fat pads were harvested, and tissues were processed for histology and biomarker analysis.
The qPCR biomarker analysis was conducted from flash frozen fat tissue from mouse study described above. First, RNA was manually extracted with RNAdvance Tissue kit (Agencourt). RNA was extracted from flash frozen fat tissue according to manufactuer's directions. For example, 5 mm steel beads were placed in the freezer for approximately 15-20 minutes. Next, Qiagen Buffer RLT was cooled to 4° C. for 20 minutes and placed in a 96 well 1.5 mL tube rack for sample transfer. Isopropanol was added to Agencourt wash buffer. 100 mL aliquots of 70% ethanol in water were prepared. The RNA Tissue beads were allowed to warm to 22° C. (˜30 minutes), and then the beads were shaken vigorously and intermittently for at least 15-20 minutes. 1 stainless steel bead was added to a 2 mL round bottom tube stored on dry ice. The tissue sample was then transferred to the 2 mL round bottom tube.
The tube rack was placed on wet ice. Then, the tubes were transferred from dry ice to the rack in wet ice and 350 μL of cold buffer RLT were added to the tubes. The beads were beaten at 30 Hz for 2 minutes. After bead beating, samples were centrifuged for 2 minutes. The supernatant was transferred into 96 well deep well isolation plate.
80 μL of RNATissue beads were combined with 320 μL of isopropanol to create a Bind Buffer. This solution was prepared fresh for each isolation with any unused solution discarded.
400 μL of Bind Buffer was added to the to RLT mixture and slowly mixed. The solution was incubated at room temperature for 10 minutes. Special care was taken to avoid the formation of bubbles while tip mixing.
The mixture was placed on a magnet (96 well plate—Agencourt SPRIPlate) for 6-10 minutes. After the solution became clear, the supernatant was removed from each tube while the tubes remained on the magnet and the solution was discarded.
The tubes were removed from the magnet and the pellets were washed with 800 μL of the Isopropanol Wash Buffer ten times. […]

The test system of assay [2] is adipocyte. Briefly: In vivo browning study in lean mice: Fat % by image analysis of H&E stained tissue. On the set-up: species or system Mice (C57BJ/6). The procedure: as §1
[…] The injection was performed using a 25-27-gauge ½-⅝″ length needle via a subcutaneous (SC) injection near or into the inguinal fat pad region of the lower abdomen. Dosing was done twice a week injections over 3 weeks. Necropsy was done at week 4. […]
Segments of adipocyte and inter-cellular regions in a stained image were identified by Python […] package. […] The threshold between adipocyte and inter-cellular regions in a converted image was detected by the Otsu filter function of the […]. The detected value was adjusted by multiplying 1.1.
The ratio of adipocyte in an image was calculated from the pixel number of the segments—Adipocyte Pixel was divided by Total Pixel.
The significance of the difference in Adipocyte Ratio between treatment and control groups was assessed by the Negative Binomial Generalized Linear Mixed-Effects Model using glmer.nb function of R lme4 package. […]

SMILES strings stand for the structures.

On to `CC(C)[C@@H]1CC[C@@H](C)C[C@H]1C(=O)NC[C@@H](NC(=O)[C@H](C)N)c1ccccc1` [Formula III], for which, in assay [1], the “Average Fold vs Placebo: AdipoQ” value stood at 4.7, the “Average Fold vs Placebo: Adrb3” value is 18.3, the “Average Fold vs Placebo: Cidea” value was determined as 28.0 and the “Average Fold vs Placebo: Cox7a1” value is 5.7. In addition, in assay [1], the “Average Fold vs Placebo: Cox8b” value is recorded as 19.0, the “Average Fold vs Placebo: Dio2” value is recorded as 1.8, the “Average Fold vs Placebo: Elovl3” value came to 37.5 and the “Average Fold vs Placebo: IL6” value is given as 0.8. In addition, in assay [1], the “Average Fold vs Placebo: Ppargc1” value turned out to be 3.0, the “Average Fold vs Placebo: Prdm16” value is 3.5, the “Average Fold vs Placebo: Tfap2a” value was 1.2 and the “Average Fold vs Placebo: UCP1” value is listed as 73.2. In assay [2] (mice, SC injection, Formula III one side and mirabegron other side, high and middle dosage merged, H&E images), the “Average Fat % (Adipocyte Pixel / Total Pixel)” value is 90.81%. For the same compound, the “treatment effect of reducing the adipocyte ratio” value in assay [2] (treatment vs control, p-value 0.0278, negative binomial mixed-effects model) is “statistically significant”.
